Measured values published in publication PMC6940354, “Comparative Assessment of the New PDE7 Inhibitor – GRMS-55 and Lisofylline in Animal Models of Immune-Related Disorders: A PK/PD Modeling Approach” (Pharmaceutical Research, 2020).
Marks after values point to notes of the source that are not given here.

Columns and labels:
hrPDE7A = biological target: T1, hrPDE7A (Homo sapiens, UniProt Q13946); assay: PDE-Glo Phosphodiesterase Assay, hrPDE7A; type: biochemical; settings: cAMP substrate, read-out: IC50 PDE7A, Estimate (CV%)
T1 construct: purchased SignalChem, Richmond, Canada
T1 sequence (Q13946 whole entry): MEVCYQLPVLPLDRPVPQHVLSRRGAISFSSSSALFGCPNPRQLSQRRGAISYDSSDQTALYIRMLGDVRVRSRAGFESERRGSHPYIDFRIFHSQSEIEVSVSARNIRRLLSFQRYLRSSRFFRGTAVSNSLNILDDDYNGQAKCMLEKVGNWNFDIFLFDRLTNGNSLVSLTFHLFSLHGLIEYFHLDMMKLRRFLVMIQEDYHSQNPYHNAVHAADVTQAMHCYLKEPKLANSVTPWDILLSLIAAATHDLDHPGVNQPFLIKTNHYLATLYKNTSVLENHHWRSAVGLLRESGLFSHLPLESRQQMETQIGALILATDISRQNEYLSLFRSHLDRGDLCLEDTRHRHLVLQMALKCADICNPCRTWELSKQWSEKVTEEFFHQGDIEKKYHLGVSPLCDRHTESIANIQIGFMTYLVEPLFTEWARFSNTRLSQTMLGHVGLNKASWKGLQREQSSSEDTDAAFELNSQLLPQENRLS
Method: (§1) Inhibitory activity of the investigated and reference compounds against various subtypes of PDEs was analyzed using the PDE-Glo Phosphodiesterase Assay following the manufacturer’s instruction (Promega Corp., USA). […] The values of IC50, Imax, and γ parameters of the investigated and reference compounds were estimated using non-linear regression in Phoenix WinNonlin v. […] Each sample was performed in quadruplicate and the relative activity of each sample was calculated as E=sample activity/control activity·100% .
(§2) One and a half μL aliquots of PDE-Glo reaction buffer containing appropriate amounts of human recombinant PDE (hrPDE) 1B, 2A, 3A, 4B, 4D, 5A, 7A, or 10A (SignalChem, Richmond, Canada) were placed into separate wells of a 384-well plate (Thermo Scientific, USA). The investigated compounds were initially dissolved in DMSO and then a serial dilution with DMSO was performed. Each dilution was mixed with PDE-Glo reaction buffer at a ratio of 1:5 (v/v). Then, 1 μL of the solution containing a PDE inhibitor and 2.5 μL of the substrate solution were added to each well. cGMP was used as a substrate in the case of hrPDE2A and hrPDE5A, while cAMP for other types of hrPDEs. The samples were incubated for 10 min at 30°C. […] The luminescence of each sample was measured by a microplate reader POLARstar Omega (BMG LABTECH, Germany).

hrPDE1B = biological target: T2, hrPDE1B (Homo sapiens, UniProt Q01064); assay: PDE-Glo Phosphodiesterase Assay, hrPDE1B; type: biochemical; settings: cAMP substrate, read-out: IC50 PDE1B, Estimate (CV%)
T2 construct: purchased SignalChem, Richmond, Canada
T2 sequence (Q01064 whole entry): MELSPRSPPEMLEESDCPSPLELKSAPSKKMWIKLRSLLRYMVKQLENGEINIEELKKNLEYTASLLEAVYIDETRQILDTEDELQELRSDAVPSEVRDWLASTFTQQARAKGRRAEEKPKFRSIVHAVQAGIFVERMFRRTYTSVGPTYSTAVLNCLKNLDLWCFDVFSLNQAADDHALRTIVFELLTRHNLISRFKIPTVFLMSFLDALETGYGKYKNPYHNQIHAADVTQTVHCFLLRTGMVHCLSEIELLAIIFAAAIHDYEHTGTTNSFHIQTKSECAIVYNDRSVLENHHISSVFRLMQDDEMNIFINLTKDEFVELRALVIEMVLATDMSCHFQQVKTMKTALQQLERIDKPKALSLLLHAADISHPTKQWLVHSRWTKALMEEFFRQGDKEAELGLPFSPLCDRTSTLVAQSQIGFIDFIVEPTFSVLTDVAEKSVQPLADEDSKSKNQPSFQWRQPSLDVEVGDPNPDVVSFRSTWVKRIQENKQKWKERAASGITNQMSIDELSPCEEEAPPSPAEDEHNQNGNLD
Method: as §1, §2

[1] = parameters: method as in PMID 27065076; settings: male Wistar rats; data already published ref [10]; cited from earlier work
cAMP degradation = system: cAMP degradation; parameters: method as in PMID 28730281; settings: rats, cAMP as a marker of pharmacological response ref [9]; cited from earlier work
hrPDE3A = hrPDE3A (Homo sapiens, UniProt Q14432); assay: PDE-Glo Phosphodiesterase Assay, hrPDE3A
hrPDE3A, sequence (Q14432 whole entry): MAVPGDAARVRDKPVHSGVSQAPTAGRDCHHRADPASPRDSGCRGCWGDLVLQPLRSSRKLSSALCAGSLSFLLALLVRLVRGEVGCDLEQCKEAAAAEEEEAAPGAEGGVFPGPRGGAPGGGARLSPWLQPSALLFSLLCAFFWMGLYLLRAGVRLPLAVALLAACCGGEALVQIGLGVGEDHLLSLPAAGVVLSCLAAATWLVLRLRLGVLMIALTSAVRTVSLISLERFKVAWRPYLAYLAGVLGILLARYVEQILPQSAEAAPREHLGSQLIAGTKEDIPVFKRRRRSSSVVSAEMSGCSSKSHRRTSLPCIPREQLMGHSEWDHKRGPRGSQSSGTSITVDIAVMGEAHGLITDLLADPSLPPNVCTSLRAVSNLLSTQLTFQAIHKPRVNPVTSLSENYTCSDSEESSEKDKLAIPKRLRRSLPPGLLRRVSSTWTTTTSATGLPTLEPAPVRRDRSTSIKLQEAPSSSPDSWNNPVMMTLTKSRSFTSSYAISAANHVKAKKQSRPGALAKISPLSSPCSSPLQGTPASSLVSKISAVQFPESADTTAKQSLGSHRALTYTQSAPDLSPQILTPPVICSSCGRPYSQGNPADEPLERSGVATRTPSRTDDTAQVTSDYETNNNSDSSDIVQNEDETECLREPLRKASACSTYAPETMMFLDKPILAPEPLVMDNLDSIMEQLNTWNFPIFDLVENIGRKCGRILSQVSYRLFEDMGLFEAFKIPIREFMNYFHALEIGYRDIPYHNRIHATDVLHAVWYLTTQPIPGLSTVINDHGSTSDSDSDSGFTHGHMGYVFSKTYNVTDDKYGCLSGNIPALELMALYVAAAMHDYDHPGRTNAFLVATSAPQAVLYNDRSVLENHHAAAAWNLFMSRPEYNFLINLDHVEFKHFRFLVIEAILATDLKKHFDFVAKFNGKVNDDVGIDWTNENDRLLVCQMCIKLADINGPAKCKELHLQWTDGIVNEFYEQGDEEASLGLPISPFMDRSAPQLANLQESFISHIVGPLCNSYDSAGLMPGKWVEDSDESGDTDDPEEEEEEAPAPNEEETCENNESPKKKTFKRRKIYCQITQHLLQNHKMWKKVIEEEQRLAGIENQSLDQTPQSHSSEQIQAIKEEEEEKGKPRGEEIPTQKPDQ
Method: as §1, §2

[2] = Pharmacokinetics in male Wistar rats; type: in vivo, rat; settings: for half-life: male rats (Wistar), IV, read-out: elimination half-life
Method: The same vehicles as these in pharmacodynamic studies for each compound and route of administration were used. Rats were implanted with catheters into the jugular vein and after a two-day period they were administered with the investigated compounds by the listed above routes of administration. […] Samples were subsequently centrifuged at 3000 × g for 10 min. Plasma was stored at −80°C until analysis.
A detailed description of these methods has been provided in the supplementary materials.
Firstly, the concentration-time data collected for each individual compound from one of the investigated rat strains (Wistar or Lewis) were subjected to a non-compartmental analysis (NCA). Subsequently, pharmacokinetic models were developed for each investigated compound and strain of rat. One- and two- compartment models with linear or non-linear elimination were tested. […] The final models were chosen based on the goodness-of-fit criteria, such as Akaike Information Criterion (AIC), Schwarz Bayesian Criterion (SBC), weighted sum of squared residuals (WSSR), a visual inspection of fitting, and precision of estimated parameters expressed as coefficients of variation % (CVs%). NCA analysis was performed in Phoenix WinNonlin v. 7.0 (Pharsight Corp., a Certara Company, Princeton, New Jersey). Pharmacokinetic model parameters were estimated in ADAPT 5 software (BMSR, Los Angeles, CA) using the weighted least squares algorithm. Fraction of the dose absorbed (F) following an extravascular (EV) administration was calculated according to the Eq. 4:4 F=AUC0−tEV·DIV/AUC0−tIV·DEV where AUC0-t is the area under concentration versus time curve from 0 to the last measured point and D is dose.
PK/PD and PK/PD/DIS progression models were developed considering the mechanism of action of the investigated compounds, the mechanisms of disease progression in the case of CIA, and the subsequent stages leading to TNF-α release in the case of LPS-induced endotoxemia. Various numbers of transit compartments were tested during development of the models, and the final models were chosen based on the goodness-of-fit criteria, such as AIC, SBC, a visual inspection of the fitting, and parameter precision. Estimated values of pharmacokinetic parameters were fixed during PK/PD and PK/PD/DIS progression model fitting procedures. […] PK/PD and PK/PD/DIS progression modeling were performed in ADAPT 5 software using the weighted least squares algorithm.
The applied model is a modified indirect response model ([19]) with implemented transit compartments (T1-T4) that describe the delay of the observed pharmacodynamic response. In this scheme τ is the mean transit time, kin is the time limited (from 0 to tlag) zero-order rate constant of production of a TNF-α precursor (e.g., TNF-α mRNA). […]

[3] = system: LPS-stimulated murine macrophages (RAW263.7 cells); parameters: method as in PMID 14998551; settings: LPS-stimulated murine macrophage cell line ref [31]; read-out: IC50, TNF-α production; cited from earlier work
[4] = depending on the species; earlier study ref [37]; cited from earlier work

CC(O)CCCCn1c(=O)c2c(ncn2C)n(C)c1=O (racemic) [(±)-LSF, lisofylline]
IC50 (hrPDE7A): 297 µM
IC50 (hrPDE1B): 12.9 µM
VLSF, volume of distribution of (±)-LSF, Estimate (CV%) [1]: 1.22 (3.4)^a L kg^−1
Vmax, maximal elimination rate constant of (±)-LSF, Estimate (CV%) [1]: 0.433 (56.9)^a mg min^−1 kg^−1
IC50 value for the inhibition of cAMP degradation (cAMP degradation): 3.43 µg/mL
IC50 (hrPDE3A): 73.4 µM

Cn1c(=O)c2c(nc(NCCc3ccccc3)n2CCCC(=O)NN=Cc2ccccc2O)n(C)c1=O [GRMS-55, 4-(1,3-Dimethyl-2,6-dioxo-8-(phenethylamino)-2,3,6,7-tetrahydro-1H-purin-7-yl)-N′-(2-hydroxybenzylidene)butanehydrazide]
IC50 (hrPDE1B): 2.5 µM
elimination rate constant, times lower than that of rolipram ([2]; compared to rolipram): approx. 2 times
Vd ([2]; rat, plasma, male Wistar rats, GRMS-55 IV 20 mg kg^−1, 1-compartment model, read-out: V(GRMS-55), volume of distribution, Estimate (CV%)): 1.59 L/kg
half-life ([2]; rat, plasma): 22 min
IC50 (hrPDE3A): 13.4 µM

COc1ccc(C2CNC(=O)C2)cc1OC1CCCC1 (centres unmarked) [Rolipram, rolipram]
half-life ([2]; rat, plasma): 11 min
IC50 [3]: 0.0593 µM
elimination half-life [4]: 60 to 180 min
